Columns and labels:
SLCO2A1 S346A mutant = SLCO2A1 S346A mutant (Homo sapiens, UniProt Q92959, S346A); assay type: cell-based
SLCO2A1 W565F mutant = SLCO2A1 W565F mutant (Homo sapiens, UniProt Q92959, W565F); experiment: 6-CF uptake assay, HEK293F cells expressing SLCO2A1 W565F; assay type: cell-based; conditions: 50 μM 6-CF
SLCO2A1 C143A mutant = SLCO2A1 C143A mutant (Homo sapiens, UniProt Q92959, C143A); experiment: 6-CF uptake assay, HEK293F cells expressing SLCO2A1 C143A; assay type: cell-based; conditions: C143A mutant vs WT
SLCO2A1 C448A mutant = SLCO2A1 C448A mutant (Homo sapiens, UniProt Q92959, C448A); experiment: 6-CF uptake assay, HEK293F cells expressing SLCO2A1 C448A; assay type: cell-based; conditions: C448A mutant vs WT
SLCO2A1 Y90A mutant = SLCO2A1 Y90A mutant (Homo sapiens, UniProt Q92959, Y90A); experiment: 6-CF uptake assay, HEK293F cells expressing SLCO2A1 Y90A; assay type: cell-based; conditions: 50 μM 6-CF
SLCO2A1 C420F mutant = SLCO2A1 C420F mutant (Homo sapiens, UniProt Q92959, C420F); experiment: 6-CF uptake assay, HEK293F cells expressing SLCO2A1 C420F; assay type: cell-based; conditions: C420F mutant vs WT
SLCO2A1 R445C mutant = SLCO2A1 R445C mutant (Homo sapiens, UniProt Q92959, R445C); experiment: 6-CF uptake assay, HEK293F cells expressing SLCO2A1 R445C; assay type: cell-based; conditions: 50 μM 6-CF
SLCO2A1 E465K mutant = SLCO2A1 E465K mutant (Homo sapiens, UniProt Q92959, E465K); experiment: 6-CF uptake assay, HEK293F cells expressing SLCO2A1 E465K; assay type: cell-based; conditions: E465K mutant vs WT
SLCO2A1 [1] = conditions: read-out: Km for 6-CF reported in a previous study; cited from earlier work
SLCO2A1 [2] = conditions: read-out: IC50 in competitively inhibiting radioactive PGE2; pH 7.4; cited from earlier work
human SLCO2A1 = human SLCO2A1 (Homo sapiens, UniProt Q92959); experiment: 6-CF uptake assay in HEK293F cells expressing SLCO2A1 WT

| Compound | increase in 6-CF uptake activity (SLCO2A1 S346A mutant) [fold] | 6-CF uptake (percentage of SLCO2A1-WT) (SLCO2A1 W565F mutant) [%] | reduction of the 6-CF uptake activity (SLCO2A1 C143A mutant) | reduction of the 6-CF uptake activity (SLCO2A1 C448A mutant) [%] | 6-CF uptake (percentage of SLCO2A1-WT) (SLCO2A1 Y90A mutant) [%] | decrease of 6-CF uptake activity (SLCO2A1 C420F mutant) | 6-CF uptake (percentage of SLCO2A1-WT) (SLCO2A1 R445C mutant) [%] | decrease of 6-CF uptake activity (SLCO2A1 E465K mutant) | Km (SLCO2A1 [1]) [µM] | IC50 (SLCO2A1 [2]) [nM] | IC50 (human SLCO2A1) [nM] | IC50 (6-CF uptake) relative to IC50 (radioactive PGE2, pH 7.4) (human SLCO2A1; IC50 2.21 μM vs 0.17 μM) [fold] |
| --- | --- | --- | --- | --- | --- | --- | --- | --- | --- | --- | --- | --- |
| 6-Carboxyfluorescein [6-CF] | 1.5 | ~50 | approximately 80% | ~55 | 60 | more than 80% | 60 | more than 80% | 270 ± 40.7 |  |  |  |
| Cc1ccc(C(=O)Nc2ccc(S(=O)(=O)O)c3cc(S(=O)(=O)O)cc(S(=O)(=O)O)c23)cc1NC(=O)c1cccc(NC(=O)Nc2cccc(C(=O)Nc3cc(C(=O)Nc4ccc(S(=O)(=O)O)c5cc(S(=O)(=O)O)cc(S(=O)(=O)O)c45)ccc3C)c2)c1 [suramin] |  |  |  |  |  |  |  |  |  | 170 | 2210 ± 370 | 13 |
